Each structure is given as a SMILES string.

The text below walks through data of BindingDB's records for doi:10.1021/acsmedchemlett.0c00405 (University of Oxford, 2020).

The test in a line: Modulation of human utrophinA expressed in mouse H2K-mdx utrnA-luc cells assessed as upregulation of utrophin production after 24 hrs by luciferase reporter gene assay.

`CCP(=O)(OC)c1ccc2oc(-c3ccc(C(F)F)cc3)nc2c1` (stereo not given): the EC50 turned out to be 750 nM. To `CCP(=O)(OC)c1ccc2nc(-c3ccc(C(F)F)cc3)oc2c1` (stereo not given) belongs 1900 nM; to `CCP(=O)(OC)c1ccc2oc(-c3ccc(F)cc3C(F)F)nc2c1` (stereo not given), 580 nM; to `CCP(=O)(OC)c1ccc2oc(-c3ccccc3C(F)F)nc2c1` (stereo not given), 1260 nM.

With `CCP(=O)(OC)c1ccc2oc(-c3cccc(C(F)F)c3)nc2c1` (stereo not given), the EC50 turned out to be 890 nM. As for `CCP(=O)(OC)c1ccc2oc(-c3cccc(OC(F)F)c3)nc2c1` (stereo not given), the EC50 worked out at 677 nM. Take `CCP(=O)(OC)c1ccc2oc(-c3ccnc(OC(F)F)c3)nc2c1` (stereo not given): the EC50 is 309 nM. For the compound `CCP(=O)(OC)c1ccc2nc(-c3cncc(C(F)(F)F)c3)oc2c1` (stereo not given), the EC50 was greater than 50000 nM. With `CCP(=O)(OC)c1ccc2nc(-c3ccccc3C(F)F)oc2c1` (stereo not given) the figure was 500 nM; with `CCP(=O)(OC)c1ccc2oc(-c3cncc(C(F)(F)F)c3)nc2c1` (stereo not given), 4170 nM. Consider `CCP(=O)(OC)c1ccc2oc(-c3ccc4c(c3)OC(F)(F)O4)nc2c1` (stereo not given), for which the EC50 was 530 nM. With `CCP(=O)(OC)c1ccc2oc(-c3cccc(OC)c3)nc2c1` (stereo not given) the figure was 157 nM.

`CCP(=O)(OC)c1ccc2oc(-c3cncc(C(F)F)c3)nc2c1` (stereo not given): the EC50 came out at 5900 nM. With `CCP(=O)(OC)c1ccc2oc(-c3ccc(OC)cc3)nc2c1` (stereo not given) the figure was 510 nM; with `CCP(=O)(OC)c1ccc2nc(-c3cccc(OC(F)F)c3)oc2c1` (stereo not given), greater than 50000 nM.

For orientation: EC50 means the concentration needed to bring the measured effect to its halfway point.
